Measured values published in patent US20130164336A1, “ANTIMICROBIAL AND ANTI-INFLAMMATORY ACTION PHARMACEUTICAL COMPOSITION FOR PARENTERAL ADMINISTRATION AND ITS PRODUCTION PROCESS” (priority 2010, published 2013).

Key:
Type in all cases: in vivo
Staphylococcus aureus = assay: Anti-inflammatory action: peripheral blood leukocytes of mice surviving to day 7 after sepsis induction; settings: mice infected with Staphylococcus aureus surviving to day 7, median, low and high quartiles
Method: (§1) The mice have been injected 0.8 ml of Pseudomonas aeruginosa daily culture suspension with a dosage 5×10^8 CFU/mouse or Staphylococcus aureus daily culture suspension with a dosage 10^10 CFU/mouse or Escherichia coli daily culture suspension with a dosage 8×10^8 CFU/mouse. […] In a day after being infected the test mice have been daily (during 3 days) intravenous injected with 100 mg/kg of antibiotics or different pharmaceutical compositions (antibiotic/BHSiO2) watered down with 0.25 ml of normal saline solution.
(§2) It is known that in case of sepsis the quantity of peripheral blood leucocytes can determine the activity of the inflammatory process.
(§3) We have studied the leukocytes quantity of the mice that have survived until the day 7 after sepsis induction, according to the method described above.

Pseudomonas aeruginosa = assay: as above; settings: mice infected with Pseudomonas aeruginosa surviving to day 7, median, low and high quartiles
Method: as §1, §2, §3

[1] = system: Staphylococcus aureus (ATCC No 25923 F-49); assay: Experimental sepsis model in mice, survival on the 7th day; settings: S. aureus 10^10 CFU/mouse
Text: (§4) To determine therapeutic efficiency of fosfamicin and their pharmaceutical compositions including BHSiO2, we used experimental sepsis models and a statistical processing methos of the received data (χ^2) according to [29, 30].
(§5) Microorganisms: Staphylococcus aureus (ATCC No 25923 F-49), Escherichia coli (ATCC No 25922 F-50), Pseudomonas aeruginosa (ATCC N227853 F-51).
(§6) Animals: for the experiments we used hybrid mice (CBA×C57Black/6)CBF1 according to the “Regulations for test animals use” (USSR Ministry of health order supplement No 755 from 12.08. 1977).
(§7) The mice have been injected 0.8 ml of Pseudomonas aeruginosa daily culture suspension with a dosage 5×10^8 CFU/mouse or Staphylococcus aureus daily culture suspension with a dosage 10^10 CFU/mouse or Escherichia coli daily culture suspension with a dosage 8×10^8 CFU/mouse. The control group has been injected with 0.8 ml of normal saline solution (0.9% sodium chloride solution). In a day after being infected the test mice have been daily (during 3 days) intravenous injected with 100 mg/kg of antibiotics or different pharmaceutical compositions (antibiotic/BHSiO2) watered down with 0.25 ml of normal saline solution. The control group of mice has been injected using the same scheme with normal saline solution […].
(§8) Antimicrobial therapy efficiency has been estimated basing on the q-ty of the living mice on the 7th day of the experiment.
(§9) The obtained data stated in Table No 2 reflect the results of 3 independent experiments conducted for each test group.

[2] = system: Escherichia coli (ATCC No 25922 F-50); assay: as above; settings: E. coli 8×10^8 CFU/mouse
Text: as §4, §5, §6, §7, §8, §9

[3] = system: Pseudomonas aeruginosa (ATCC N227853 F-51); assay: as above; settings: P. aeruginosa 5×10^8 CFU/mouse
Text: as §4, §5, §6, §7, §8, §9

[4] = 100 mg/kg intravenous daily for 3 days
[5] = 100 mg/kg intravenous daily for 3 days from a day after infection

C[C@@H]1O[C@@H]1P(=O)(O)O [Fosfomycin, fosfomycin]
Leukocytes quantity Me(LQ-HQ) (Staphylococcus aureus): 17.38 (15.5-21.5) × 10^9/l | Leukocytes quantity Me(LQ-HQ) (Pseudomonas aeruginosa): 17.13 (16.0-18.63) × 10^9/l | Mice survival on the 7th day, survived/infected animals (absolute values) [1, 4]: (12/30) | Mice survival rate on the 7th day of infection [1, 5]: 40% | Mice survival on the 7th day, survived/infected animals (absolute values) [2, 4]: (14/30) | Mice survival rate on the 7th day of infection [2, 5]: 46.6% | Mice survival on the 7th day, survived/infected animals (absolute values) [3, 4]: (10/31) | Mice survival rate on the 7th day of infection [3, 5]: 32.2%
